Experimental data as given in patent US20240252506A1 (Hoffmann-La Roche Inc., priority 2021, published 2024).
Converted amounts (≈) assume the structure as drawn.

System: Escherichia coli ATCC 25922
Experiment: Minimal Inhibitory Concentration (MIC) determination, broth microdilution (CLSI M07-A10)
Type: cell-based
Conditions: Escherichia coli, ATCC25922, strain Escherichia coli ATCC 25922, 18-24 hours at 35±2° C., lowest concentration for complete growth inhibition (no visible growth), read-out: Escherichia coli growth inhibition MIC
Summary of the method: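 Broth microdilution per CLSI M07-A10; compounds in 2-fold serial dilutions; inoculum from 0.5 McFarland suspension diluted 1:200 in broth. Incubated 18-24 h at 35±2° C in ambient air; MIC (μg/mL) taken as lowest concentration giving no visible growth.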

Structure (SMILES) | MIC
O=C1COc2ncc(N3CC4(CCN(CC5Cc6c(c(F)c7nn(CCNC8CC8)nc7c6F)C5)CC4)OC3=O)nc2N1 [Example 122] | 0.5 µg/mL (≈ 0.839 µM)
O=C1COc2ncc(N3CC4(CCN(CC5Cc6c(c(F)c7c(nnn7C7CNC7)c6F)C5)CC4)OC3=O)nc2N1.O=CO (single isomer, unassigned) [Example 120, 6-[8-[[1-(azetidin-3-yl)-4,8-difluoro-6,7-dihydro-5H-cyclopenta[f]benzotriazol-6-yl]methyl]-2-oxo-1-oxa-3,8-diazaspiro[4.5]decan-3-yl]-4H-pyrazino[2,3-b][1,4]oxazin-3-one; formic acid] | 0.25 µg/mL
O=C1COc2ncc(N3CC4(CCN(CC5Cc6c(c(F)c7c(nnn7C7CNC7)c6F)C5)CC4)OC3=O)nc2N1 (centres unmarked) [Example 80, 6-[8-[[1-(azetidin-3-yl)-4,8-difluoro-6,7-dihydro-5H-cyclopenta[f]benzotriazol-6-yl]methyl]-2-oxo-1-oxa-3,8-diazaspiro[4.5]decan-3-yl]-4H-pyrazino[2,3-b][1,4]oxazin-3-one] | 0.125 µg/mL (≈ 0.22 µM)
O=C(O)C(F)(F)F.O=C1COc2ccc(N3CC4(CCN(CC5Cc6c(c(F)c7[nH]c([C@H]8CCNC8)nc7c6F)C5)CC4)OC3=O)nc2N1 [Example 15, 6-[8-[[4,8-difluoro-2-[(3S)-pyrrolidin-3-yl]-3,5,6,7-tetrahydrocyclopenta[f]benzimidazol-6-yl]methyl]-2-oxo-1-oxa-3,8-diazaspiro[4.5]decan-3-yl]-4H-pyrido[3,2-b][1,4]oxazin-3-one; 2,2,2-trifluoroacetic acid] | 0.25 µg/mL
CNCc1nc2cc3c(c(F)c2o1)CC(CN1CCC2(CC1)CN(c1ccc4c(n1)NC(=O)CO4)C(=O)O2)C3 (single isomer, unassigned) [Example 136, 6-[8-[[8-Fluoro-2-(methylaminomethyl)-6,7-dihydro-5H-cyclopenta[f][1,3]benzoxazol-6-yl]methyl]-2-oxo-1-oxa-3,8-diazaspiro[4.5]decan-3-yl]-4H-pyrido[3,2-b][1,4]oxazin-3-one] | 1 µg/mL (≈ 1.86 µM)

The remaining lines, values ahead:

MIC | Structure (SMILES)
0.125 µg/mL (≈ 0.233 µM) | CNCc1nc2cc3c(c(F)c2[nH]1)CC(CN1CCC2(CC1)CN(c1cnc4c(n1)NC(=O)CO4)C(=O)O2)C3 (single isomer, unassigned) [Example 59, 6-[8-[[8-Fluoro-2-(methylaminomethyl)-1,5,6,7-tetrahydrocyclopenta[f]benzimidazol-6-yl]methyl]-2-oxo-1-oxa-3,8-diazaspiro[4.5]decan-3-yl]-4H-pyrazino[2,3-b][1,4]oxazin-3-one]
≤ 0.06 µg/mL | NCCn1nc2cc(F)c3c(c2n1)CC(CN1CCC2(CC1)CN(c1cnc4c(n1)NC(=O)CO4)C(=O)O2)C3.O=C(O)C(F)(F)F (centres unmarked) [Example 83, 6-[8-[[2-(2-aminoethyl)-5-fluoro-7,8-dihydro-6H-cyclopenta[e]benzotriazol-7-yl]methyl]-2-oxo-1-oxa-3,8-diazaspiro[4.5]decan-3-yl]-4H-pyrazino[2,3-b][1,4]oxazin-3-one; 2,2,2-trifluoroacetic acid]
0.125 µg/mL | CN[C@H](C)c1nc2c(F)c3c(c(F)c2[nH]1)CC(CN1CCC2(CC1)CN(c1cnc4c(n1)NC(=O)CO4)C(=O)O2)C3.O=C(O)C(F)(F)F [Example 17, 6-[8-[[4,8-difluoro-2-[(1R)-1-(methylamino)ethyl]-3,5,6,7-tetrahydrocyclopenta[f]benzimidazol-6-yl]methyl]-2-oxo-1-oxa-3,8-diazaspiro[4.5]decan-3-yl]-4H-pyrazino[2,3-b][1,4]oxazin-3-one; 2,2,2-trifluoroacetic acid]
0.25 µg/mL | O=C(O)C(F)(F)F.O=C1COc2ncc(N3CC4(CCN(CC5Cc6c(c(F)c7[nH]c([C@@H]8C[C@@H](O)CN8)nc7c6F)C5)CC4)OC3=O)nc2N1 [Example 46, 6-[8-[[4,8-Difluoro-2-[(2S,4R)-4-hydroxypyrrolidin-2-yl]-3,5,6,7-tetrahydrocyclopenta[f]benzimidazol-6-yl]methyl]-2-oxo-1-oxa-3,8-diazaspiro[4.5]decan-3-yl]-4H-pyrazino[2,3-b][1,4]oxazin-3-one;2,2,2-trifluoroacetic acid]
0.25 µg/mL | O=C(O)C(F)(F)F.O=C1COc2ncc(N3CC4(CCN(CC5Cc6cc7[nH]c([C@@H]8C[C@@H](O)CN8)nc7c(F)c6C5)CC4)OC3=O)nc2N1 (stereo partly drawn) [Example 48, 6-[8-[[8-fluoro-2-[(2S,4R)-4-hydroxypyrrolidin-2-yl]-3,5,6,7-tetrahydrocyclopenta[f]benzimidazol-6-yl]methyl]-2-oxo-1-oxa-3,8-diazaspiro[4.5]decan-3-yl]-4H-pyrazino[2,3-b][1,4]oxazin-3-one; 2,2,2-trifluoroacetic acid]
0.25 µg/mL | Cn1c([C@@H]2C[C@@H](O)CN2)nc2c(F)c3c(c(F)c21)CC(CN1CCC2(CC1)CN(c1cnc4c(n1)NC(=O)CO4)C(=O)O2)C3.O=C(O)C(F)(F)F (stereo partly drawn) [Example 55, 6-[8-[[4,8-difluoro-2-[(2S,4R)-4-hydroxypyrrolidin-2-yl]-1-methyl-6,7-dihydro-5H-cyclopenta[f]benzimidazol-6-yl]methyl]-2-oxo-1-oxa-3,8-diazaspiro[4.5]decan-3-yl]-4H-pyrazino[2,3-b][1,4]oxazin-3-one; 2,2,2-trifluoroacetic acid]
2 µg/mL (≈ 2.99 µM) | O=C1COc2ncc(N3CC4(CCN(CC5Cc6c(c(F)c7c(nnn7CCNC(=O)[C@H]7C[C@H](O)CN7)c6F)C5)CC4)OC3=O)nc2N1 (stereo partly drawn) [Example 164, (2R,4S)-N-[2-[4,8-difluoro-6-[[2-oxo-3-(3-oxo-4H-pyrazino[2,3-b][1,4]oxazin-6-yl)-1-oxa-3,8-diazaspiro[4.5]decan-8-yl]methyl]-6,7-dihydro-5H-cyclopenta[f]benzotriazol-1-yl]ethyl]-4-hydroxy-pyrrolidine-2-carboxamide]
0.5 µg/mL | O=C1COc2ncc(N3CC4(CCN(CC5Cc6cc7c(nnn7C7CNC7)c(F)c6C5)CC4)OC3=O)nc2N1.O=CO (single isomer, unassigned) [Example 115, 6-[2-oxo-8-[[3-(azetidin-3-yl)-8-fluoro-6,7-dihydro-5H-cyclopenta[f]benzotriazol-6-yl]methyl]-1-oxa-3,8-diazaspiro[4.5]decan-3-yl]-4H-pyrazino[2,3-b][1,4]oxazin-3-one; formic acid]

Same assay, conditions: strain Escherichia coli ATCC 25922, 18-24 hours at 35±2° C., lowest concentration for complete growth inhibition (no visible growth)

Escherichia coli growth inhibition MIC | Structure (SMILES)
2 µg/mL | CN(C)CC(=O)N(C)CCn1nnc2c(F)c3c(c(F)c21)CC(CN1CCC2(CC1)CN(c1cnc4c(n1)NC(=O)CO4)C(=O)O2)C3 (single isomer, unassigned) [Example 153, N-[2-[4,8-difluoro-6-[[2-oxo-3-(3-oxo-4H-pyrazino[2,3-b][1,4]oxazin-6-yl)-1-oxa-3,8-diazaspiro[4.5]decan-8-yl]methyl]-6,7-dihydro-5H-cyclopenta[f]benzotriazol-1-yl]ethyl]-2-(dimethylamino)-N-methyl-acetamide]
≤0.06 µg/mL | NCCc1nc2cc3c(c(F)c2o1)CC(CN1CCC2(CC1)CN(c1cnc4c(n1)NC(=O)CO4)C(=O)O2)C3 (single isomer, unassigned) [Example 103, 6-[8-[[2-(2-aminoethyl)-8-fluoro-6,7-dihydro-5H-cyclopenta[f][1,3]benzoxazol-6-yl]methyl]-2-oxo-1-oxa-3,8-diazaspiro[4.5]decan-3-yl]-4H-pyrazino[2,3-b][1,4]oxazin-3-one]
0.25 µg/mL | CNC(CO)c1nc2c(F)c3c(c(F)c2[nH]1)CC(CN1CCC2(CC1)CN(c1cnc4c(n1)NC(=O)CO4)C(=O)O2)C3 (single isomer, unassigned) [Example 67, 6-[8-[[4,8-Difluoro-2-[2-hydroxy-1-(methylamino)ethyl]-3,5,6,7-tetrahydrocyclopenta[f]benzimidazol-6-yl]methyl]-2-oxo-1-oxa-3,8-diazaspiro[4.5]decan-3-yl]-4H-pyrazino[2,3-b][1,4]oxazin-3-one]
0.5 µg/mL | CNCc1nc2cc3c(c(F)c2o1)CC(CN1CCC2(CC1)CN(c1ccc4c(n1)NC(=O)CO4)C(=O)O2)C3 (single isomer, unassigned) [Example 137, 6-[8-[[8-Fluoro-2-(methylaminomethyl)-6,7-dihydro-5H-cyclopenta[f][1,3]benzoxazol-6-yl]methyl]-2-oxo-1-oxa-3,8-diazaspiro[4.5]decan-3-yl]-4H-pyrido[3,2-b][1,4]oxazin-3-one]
1 µg/mL | O=C1COc2ccc(N3CC4(CCN(CC5Cc6cc7nc([C@@H]8C[C@@H](O)CN8)oc7c(F)c6C5)CC4)OC3=O)nc2N1 (stereo partly drawn) [Example 148, 6-[8-[[8-Fluoro-2-[(2S,4R)-4-hydroxypyrrolidin-2-yl]-6,7-dihydro-5H-cyclopenta[f][1,3]benzoxazol-6-yl]methyl]-2-oxo-1-oxa-3,8-diazaspiro[4.5]decan-3-yl]-4H-pyrido[3,2-b][1,4]oxazin-3-one]
0.25 µg/mL | O=C1COc2ncc(N3CC4(CCN(CC5Cc6c(c(F)c7c(nnn7CCNC7CC7)c6F)C5)CC4)OC3=O)nc2N1.O=CO (single isomer, unassigned) [Example 125, 6-[8-[[1-[2-(Cyclopropylamino)ethyl]-4,8-difluoro-6,7-dihydro-5H-cyclopenta[f]benzotriazol-6-yl]methyl]-2-oxo-1-oxa-3,8-diazaspiro[4.5]decan-3-yl]-4H-pyrazino[2,3-b][1,4]oxazin-3-one;formic acid]
0.125 µg/mL | NCCc1nc2cc3c(c(F)c2o1)CC(CN1CCC2(CC1)CN(c1cnc4c(n1)NC(=O)CO4)C(=O)O2)C3 (single isomer, unassigned) [Example 102, 6-[8-[[2-(2-aminoethyl)-8-fluoro-6,7-dihydro-5H-cyclopenta[f][1,3]benzoxazol-6-yl]methyl]-2-oxo-1-oxa-3,8-diazaspiro[4.5]decan-3-yl]-4H-pyrazino[2,3-b][1,4]oxazin-3-one]
